Consider 21 compounds from PubChem BioAssay (NCI).

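Following 48 hours of exposure in 96-well plates, responses at five concentrations were used to interpolate endpoints linearly. At the TGI there is no net growth.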

What all share (assay): inhibition of tumour cell growth, NCI panel, 48 h
The subject of assay [1] is A498 renal.
Assay [2] has as its system CAKI-1 renal.
The subject of assay [3] is HCT-116 colon.
For assay [4], the system named is HL-60(TB) leukemia.
The subject of assay [5] is HT29 colon.
The test system of assay [6] is K-562 leukemia.
The test system of assay [7] is OVCAR-8 ovarian.
For assay [8], the system named is RPMI-8226 leukemia.
In assay [9] the test system is SF-295 CNS.
Assay [10] has as its system SK-MEL-2 melanoma.
Assay [11] relates to SK-MEL-28 melanoma.
Assay [12] concerns UACC-257 melanoma.
Assay [13] deals with NCI-H460 lung.
The subject of assay [14] is U251 CNS.

With `CCN(CC)CCCCC1CCN(CC(=O)N2c3ccccc3NC(=O)c3ccccc32)CC1`, the TGI in [1], in [2], in [3], in [4], in [5] and in assay [6] was over 100 µM in each case. The TGI in assay [7], in [8], in [9], in [10], in [11] and in assay [12] was over 100 µM each time.
As for `CCCCOC(=O)/C(CC(=O)C=C(C)C)=N\NS(=O)(=O)c1ccc(C)cc1`, the TGI in assay [1], in [2], in [3], in assay [4], in [5] and in assay [6] was over 100 µM in each case. The TGI in [13], in assay [7], in assay [8], in [9], in assay [10] and in [11] was over 100 µM throughout. The TGI in assay [14] and in assay [12] was over 100 µM in each case.
As for `O=C(O)Cc1cc(=O)oc2cc(O)c(Cl)cc12`, the TGI in [1], in assay [2], in [3], in assay [4], in assay [5] and in assay [6] was over 100 µM in each case. The TGI in assay [13], in [7], in assay [8], in assay [9], in assay [10] and in assay [11] was over 100 µM throughout. In assay [14], this compound came in with a TGI of over 100 µM.
Consider `Cc1ccc(S(=O)(=O)N/N=C2\C(=O)C3CC2C(Cl)C3Cl)cc1` (configuration not stated), for which the TGI in assay [1], in assay [2], in assay [3], in assay [4], in assay [5] and in assay [6] was over 100 µM throughout. Further, the TGI in [13], in assay [7], in [8], in assay [9], in [11] and in assay [14] was over 100 µM in each case. The TGI in [12] was over 100 µM.
In the case of `COc1ccc(NS(=O)CCc2ccccc2)cc1` (configuration not stated), the TGI in [2], in assay [3], in assay [4], in assay [5], in assay [6] and in assay [13] was over 100 µM throughout. The TGI in [7], in assay [8], in assay [9], in assay [11], in [14] and in [12] was over 100 µM each time.
`CCOc1ccc(NCC(=O)N2CC(=O)Nc3ccccc32)cc1`: the TGI in assay [2], in assay [3], in [4], in [5], in assay [6] and in [13] was over 100 µM throughout. Also, the TGI in assay [7], in [8], in assay [9], in [10], in assay [11] and in assay [14] was over 100 µM throughout. In assay [12], the TGI was over 100 µM.
Regarding `CCCOc1ccc(/C=C/c2cc(OC)c(OC)c(OC)c2)cc1`, the TGI was over 22.6 µM in assay [1]; 37.6 µM in [2]; over 33.3 µM in [3]; 1.16 µM in [4]; 3.93 µM in [5]; over 100 µM in [6]. For the same compound, the TGI was over 32.4 µM in assay [13]; 22.3 µM in assay [7]; 28.4 µM in assay [8]; 1.06 µM in assay [9]; over 100 µM in [10]; over 100 µM in [11]. The TGI was over 29.6 µM in assay [14] and 39.3 µM in [12].
In the case of `CCN=C1NN=C(c2ccccc2)c2cc(Cl)ccc2N1`, the TGI in [1] was 90 µM; in assay [2], 36.9 µM; in assay [4] it was 62.3 µM; in assay [5], 32.3 µM; in [6] it was over 100 µM; in [7] it was 69.4 µM. For the same compound, the TGI in [8] was determined as 87.1 µM; in assay [9] it was 37.5 µM; in assay [10], 32.8 µM; in assay [11] it was 33.7 µM; in assay [14] it was 42.6 µM; in assay [12], 34.3 µM.
Take `O=C1/C(=C/c2cccc([N+](=O)[O-])c2)COc2ccccc21`: the TGI in [1] is over 84.4 µM; in assay [2] it was over 100 µM; in assay [3], 3.16 µM; in assay [4], 5.59 µM; in [5] it was 6.85 µM; in assay [6], over 28.5 µM. For the same compound, the TGI was over 25.2 µM in [13]; 9.19 µM in [7]; over 94.5 µM in assay [9]; 20 µM in [10]; 7.42 µM in [11]; 6.83 µM in assay [14]. For the same compound, in [12], the TGI was over 64.7 µM.
For the compound `CC(=O)OC1[C@H]2c3cc4c(cc3CN3CCC(C[C@@H]1OC(C)=O)C23)OCO4` (some centres not stated), the TGI in assay [3], in assay [4], in assay [5], in assay [6], in assay [13] and in [7] was over 75 µM throughout. The TGI in assay [8], in assay [9], in assay [11], in [14] and in [12] was over 75 µM throughout.
Take `N#CCCc1nc2ccc(Br)cc2c(=O)n1-c1ccc(O)c([N+](=O)[O-])c1`: the TGI in assay [1] is over 100 µM; in assay [2], 92.6 µM; in assay [4] it was 41.9 µM; in assay [5], over 100 µM; in assay [6], 61.9 µM; in [13] it was 66.9 µM. Further, the TGI is over 100 µM in assay [7]; 40 µM in [8]; 47.8 µM in assay [9]; 34.7 µM in [10]; 34.8 µM in assay [11]; 74.3 µM in [12].
`CCc1cc(Cc2cc(CC)c(NC(=O)C3=CC(=O)CC(c4ccc(OC)cc4)O3)c(CC)c2Cl)c(Cl)c(CC)c1NC(=O)C1=CC(=O)CC(c2ccc(OC)cc2)O1` (configuration not stated): the TGI in [1] was 39.9 µM; in assay [2], 65.8 µM; in assay [3], 31.6 µM; in assay [4] it was 68.1 µM; in assay [5], 36.4 µM; in assay [6], over 100 µM. For the same compound, the TGI in [13] is 32.6 µM; in [7], 90.5 µM; in assay [8], 46.8 µM; in assay [9], 38.7 µM; in [10], 36.7 µM; in [11] it was 41.4 µM. Further, the TGI worked out at 26.1 µM in assay [14] and 36.8 µM in assay [12].
As to `COc1ccc2c(c1)c(Cc1c(C)n(C)c3ccc(OC)cc13)c(C)n2C`, the TGI in assay [1], in assay [2], in assay [3], in [4], in assay [5] and in [6] was over 100 µM each time. Further, the TGI in [13], in [7], in assay [8], in assay [9], in [10] and in [11] was over 100 µM in each case. Further, the TGI in assay [14] and in assay [12] was over 100 µM each time.
Take `COC(=O)c1c/c(=N\NC(=O)CC(=O)Nc2ccccc2Cl)c2ccccc2o1`: the TGI in [2], in assay [3], in [4], in [5], in assay [6] and in [13] was over 100 µM throughout. The TGI in [7], in assay [8], in [9], in assay [10], in [11] and in [14] was over 100 µM each time. The compound also gave a TGI in assay [12] of over 100 µM.
With `CCOC(=O)/C(C#N)=C(O)/C(=C/c1ccccc1Cl)NC(=O)c1ccccc1`, the TGI in [1], in [2], in assay [3], in assay [4], in [5] and in assay [6] was over 100 µM throughout. The TGI was over 100 µM in assay [13]; over 100 µM in assay [7]; 55.1 µM in [8]; over 100 µM in assay [9]; over 100 µM in assay [11]; over 100 µM in [14]. Further, in [12], the TGI was over 100 µM.
Consider `COc1ccc(CCN2CCC(C#N)(c3ccc(OC)c(OC)c3)CC2)cc1OC`, for which the TGI in assay [3], in [4], in [5], in assay [6], in assay [13] and in assay [7] was over 100 µM throughout. The TGI in [8], in [9], in assay [10], in assay [11], in assay [14] and in [12] was over 100 µM each time.
As to `O=S(=O)(CC1=NC2C=CC=CC2N=C1)NCc1ccccc1` (configuration not stated), the TGI in [1], in assay [2], in assay [3], in assay [4], in assay [5] and in assay [6] was over 100 µM in each case. Also, the TGI in assay [13], in assay [7], in [8], in assay [9], in assay [10] and in [11] was over 100 µM throughout. The TGI in assay [14] was over 100 µM.
Turning to `CC(=O)Nc1ccc(-c2nnc(SCC(=O)Nc3ccccc3Cl)o2)cc1`, the TGI in assay [1], in assay [2], in [3], in [4], in [5] and in assay [6] was over 100 µM in each case. Besides, the TGI in [13], in [7], in assay [9], in assay [10], in assay [11] and in assay [14] was over 100 µM throughout. The compound further gave a TGI in assay [12] of over 100 µM.
Regarding `Cc1ccc2sc3cc(=O)cc(C)c-3nc2c1`, the TGI in [2] is 93.1 µM; in assay [3], over 100 µM; in assay [4], 66 µM; in [5], over 100 µM; in [6] it was over 100 µM; in assay [13], over 100 µM. Also, the TGI in [7], in [9], in assay [10], in [11], in [14] and in assay [12] was over 100 µM each time.
For `Oc1cn(-c2ccc(Cl)cc2)nc1-c1nnc(Nc2ccccc2)o1`, the TGI in [1] is 29.5 µM; in assay [2], over 100 µM; in assay [3], 29.6 µM; in assay [5], 22 µM; in [13], 39.6 µM; in [7], 43.6 µM. Moreover, the TGI came to 39.2 µM in assay [9]; 38.3 µM in assay [10]; 34.9 µM in [11]; 34.1 µM in assay [14]; 43.5 µM in [12].
With `COc1ccc2c(OC)c3ccoc3nc2c1O`, the TGI in [1], in assay [2], in assay [3], in [5], in [6] and in assay [13] was over 100 µM in each case. Also, the TGI in assay [7], in assay [8], in assay [9], in [10], in [11] and in [14] was over 100 µM each time. Further, in [12], the TGI is over 100 µM.
